This is an account of results in PMC10698726 (Molecular Pharmaceutics, 2023).

Like-named read-outs stand apart in the source and are kept apart here.

Series [1] concerns the target T1, OCT1 (Homo sapiens, UniProt O15245).
T1 sequence (O15245 1-554): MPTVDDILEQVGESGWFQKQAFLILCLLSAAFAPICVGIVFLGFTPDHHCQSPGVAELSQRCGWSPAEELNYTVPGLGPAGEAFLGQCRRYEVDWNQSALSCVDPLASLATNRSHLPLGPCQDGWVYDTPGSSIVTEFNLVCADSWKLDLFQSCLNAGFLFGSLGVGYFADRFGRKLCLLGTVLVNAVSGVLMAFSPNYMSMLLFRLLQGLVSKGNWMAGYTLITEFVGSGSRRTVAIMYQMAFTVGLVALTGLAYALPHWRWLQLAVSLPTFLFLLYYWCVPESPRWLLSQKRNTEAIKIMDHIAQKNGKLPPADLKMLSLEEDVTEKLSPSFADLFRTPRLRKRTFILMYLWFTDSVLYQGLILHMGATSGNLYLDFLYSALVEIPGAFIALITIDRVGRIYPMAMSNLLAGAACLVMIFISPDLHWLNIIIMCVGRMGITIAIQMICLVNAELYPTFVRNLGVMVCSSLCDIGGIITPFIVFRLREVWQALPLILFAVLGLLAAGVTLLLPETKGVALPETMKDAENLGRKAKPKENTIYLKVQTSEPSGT
The following applies: cited from earlier work.

Series [2] deals with T2, OCT3 (Homo sapiens, UniProt O75751).
T2 construct: expressed in transfected cells; host or cells: HEK293
T2 sequence (O75751 1-556): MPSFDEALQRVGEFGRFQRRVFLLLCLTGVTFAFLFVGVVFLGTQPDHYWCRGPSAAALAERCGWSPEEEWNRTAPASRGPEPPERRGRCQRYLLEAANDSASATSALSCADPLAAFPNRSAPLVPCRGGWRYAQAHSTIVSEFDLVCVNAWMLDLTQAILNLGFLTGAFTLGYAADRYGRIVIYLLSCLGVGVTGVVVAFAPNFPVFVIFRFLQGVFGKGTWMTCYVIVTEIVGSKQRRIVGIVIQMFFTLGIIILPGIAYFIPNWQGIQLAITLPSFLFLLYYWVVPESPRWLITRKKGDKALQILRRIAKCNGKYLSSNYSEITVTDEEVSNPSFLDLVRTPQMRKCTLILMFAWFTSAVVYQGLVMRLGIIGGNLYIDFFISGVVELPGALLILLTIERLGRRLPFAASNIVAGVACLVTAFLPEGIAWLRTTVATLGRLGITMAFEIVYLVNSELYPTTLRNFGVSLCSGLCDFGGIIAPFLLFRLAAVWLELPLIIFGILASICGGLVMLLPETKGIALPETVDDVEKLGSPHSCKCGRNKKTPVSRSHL
Kind of series: Inhibition of model substrate uptake in OCT3-overexpressing HEK293 cells. The series is classed as cell-based. The following applies: OCT3, 20 μM inhibitor, 5 min. In a few lines: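 Transporter-overexpressing HEK293 cells were incubated 5 min in HBSS+ with 2 μM model substrate, with or without 20 μM inhibitor or increasing inhibitor concentrations. Uptake was read as ASP^+ fluorescence or by LC–MS/MS, with empty-vector uptake subtracted. IC50 came from a Hill fit of activity versus log concentration.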

Series [3] addresses T3, OCT2 (Homo sapiens, UniProt O15244).
T3 sequence (O15244 1-555): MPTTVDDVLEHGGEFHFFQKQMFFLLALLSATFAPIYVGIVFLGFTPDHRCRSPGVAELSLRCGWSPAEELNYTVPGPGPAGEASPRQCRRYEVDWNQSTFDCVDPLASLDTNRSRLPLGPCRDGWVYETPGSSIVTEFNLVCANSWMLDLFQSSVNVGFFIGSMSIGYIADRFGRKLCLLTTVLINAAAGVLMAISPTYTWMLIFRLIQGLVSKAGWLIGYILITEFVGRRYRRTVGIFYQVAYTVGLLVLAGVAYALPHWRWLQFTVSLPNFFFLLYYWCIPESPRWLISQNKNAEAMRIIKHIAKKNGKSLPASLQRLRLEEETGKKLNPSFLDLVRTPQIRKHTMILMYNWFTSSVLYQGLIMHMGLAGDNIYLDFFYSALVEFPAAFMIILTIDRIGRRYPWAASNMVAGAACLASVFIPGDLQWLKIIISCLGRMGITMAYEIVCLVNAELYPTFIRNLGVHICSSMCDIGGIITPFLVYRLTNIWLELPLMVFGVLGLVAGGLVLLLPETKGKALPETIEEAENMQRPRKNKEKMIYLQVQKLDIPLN
Kind of series: Inhibition of model substrate uptake in OCT2-overexpressing HEK293 cells. The note with it: OCT2, 20 μM inhibitor, 5 min.

Series [4] deals with T1, OCT1. Kind of series: Concentration-dependent uptake of model substrates, OCT1-overexpressing HEK293 cells. The following applies: this study; for Clint ± SEM: vmax over Km. Details: expressed in transfected cells; host or cells: HEK293. The series is classed as in vitro ADME. As for the experimental part:
(§1) Koepsell and Gorbulev (University of Würzburg, Germany).
(§2) Prior to inhibition studies, the used model substrates were validated in concentration-dependent uptake experiments if no literature data were available (Table S2 and Figures S2 and S3). Thereby, we ensured that the model substrate concentration used in the subsequent inhibition experiments was sufficiently below the Km value of its uptake kinetics. […] On the day of the experiment, the cells were washed once with prewarmed to 37 °C HBSS (Thermo Fisher Scientific, Darmstadt, Germany) supplemented with 10 mM HEPES and pH adjusted to 7.4 (Sigma-Aldrich)—hereafter termed HBSS+. For concentration-dependent experiments, the cells were incubated with increasing substrate concentrations for 2 min. Uptake was terminated by adding ice-cold HBSS+. Afterward, the cells were washed twice with ice-cold HBSS+, and cell lysis was done with 80% (v/v) acetonitrile (LGC Standards, Wesel, Germany) to which an internal standard for eventual LC–MS/MS analysis had been added. Intracellularly accumulated substrates were then quantified by LC–MS/MS analysis, and calibration was performed with known concentrations of the respective substances. All uptake data were normalized to the number of seeded cells by measuring the total protein content in radioimmunoprecipitation assay buffer-lysed cells in a bicinchoninic acid assay.[29]

The target in series [5] is T1, OCT1. As to the kind of experiment: Inhibition of model substrate uptake in OCT1-overexpressing HEK293 cells. The series is classed as cell-based. Details: expressed in transfected cells; host or cells: HEK293. The note with it: OCT1, 20 μM inhibitor, 5 min. As for the experimental part: as §1
Fluorescence quantification was performed in technical duplicates.

In series [6] the target is T3, OCT2. Kind of series: Concentration-dependent uptake of model substrates, OCT2-overexpressing HEK293 cells. It is filed as in vitro ADME. Also on record: expressed in transfected cells; host or cells: HEK293. The note with it: this study; for Clint ± SEM: vmax over Km; for Km: read-out: Km ± SEM. As for the experimental part: as §1, §2
Series [7] deals with T2, OCT3. As to the kind of experiment: Concentration-dependent uptake of model substrates, OCT3-overexpressing HEK293 cells. It is filed as in vitro ADME. The following applies: this study; for Clint ± SEM: vmax over Km. As for the experimental part: as §1, §2
Series [8] deals with T2, OCT3. Details: method as in earlier work. The following applies: ref 3 (Gebauer et al., 2022, supplement), cited from earlier work.
Substrate in the series “not read”: CCC(CO)NCCNC(CC)CO
Kind of series: not read.

Setting [9] is: ref 2 (Matthaei et al., 2016, supplement).

As to `CC(Cc1ccc(O)cc1)NCC(O)c1cc(O)cc(O)c1` (racemic) [rac Fenoterol, Fenoterol], on OCT1 [1] (ref 1 (Tzvetkov et al., 2018, supplement)), the “Clint ± SEM” value is given as 33.0.
For `CCC(CO)NCCNC(CC)CO` [(S,S)-Ethambutol], the “(S)-Zolmitriptan inhibition [%]” value on OCT3 [2] (2 μM (S)-zolmitriptan) is -1.3%. In addition, the “ASP+ inhibition [%]” value is reported as 3.7% on OCT3 [2] (2 μM ASP+); 38.8% on OCT2 [3] (2 μM ASP+); 5.5% on OCT1 [5] (2 μM ASP+, mean of three experiments). The “N-Ethyllidocaine inhibition [%]” value on OCT2 [3] (2 μM N-ethyllidocaine) is recorded as 10.0%. Further, the “Clint ± SEM” value is 14.1 at OCT1 [4], 36.6 at OCT2 [6] and 16.9 at OCT3 [7]. Moreover, the “Sumatriptan inhibition [%]” value at OCT1 [5] (2 μM sumatriptan) turned out to be 17.8%.
For `CN(C)c1ccc(C=Cc2cc[n+](C)cc2)cc1` [ASP+, 4-(4-(dimethylamino)styryl)-N-methylpyridinium], the Km came to 11.7 µM at OCT1 [4] (2 min uptake, read-out: Km ± SEM); 29.6 µM at OCT2 [6]; 16.5 µM at OCT3 [7] (read-out: Km ± SEM). Further, the “vmax ± SEM [pmol × mg Protein−1 × min−1]” value at OCT1 [4] was 2678 pmol × mg Protein−1 × min−1; at OCT2 [6], 1812 pmol × mg Protein−1 × min−1; at OCT3 [7] it was 3381 pmol × mg Protein−1 × min−1. Moreover, the “Clint ± SEM” value on OCT1 [4] was 230; at OCT2 [6], 61.3; on OCT3 [7], 205.
For `CC[N+](CC)(CC)CC(=O)Nc1c(C)cccc1C` [N-Ethyllidocaine], at OCT2 [6], the “vmax ± SEM [pmol × mg Protein−1 × min−1]” value is 5172 pmol × mg Protein−1 × min−1, the Km was found to be 87.7 µM and the “Clint ± SEM” value turned out to be 58.9. Further, the Km at OCT3 [8] (read-out: Km ± SEM) was 46.3 µM. Besides, at OCT3 [8], the “Clint ± SEM” value is 8.80 and the “vmax ± SEM [pmol × mg Protein−1 × min−1]” value is listed as 407 pmol × mg Protein−1 × min−1.
In the case of `CNS(=O)(=O)Cc1ccc2[nH]cc(CCN(C)C)c2c1` [Sumatriptan], the Km on OCT1 [1] (read-out: Km ± SEM, ref 2 (Matthaei et al., 2016, supplement)) was 55.4 µM. In addition, at OCT1 [1] (setting [9]), the “Clint ± SEM” value is listed as 17.6 and the “vmax ± SEM [pmol × mg Protein−1 × min−1]” value is reported as 978 pmol × mg Protein−1 × min−1.

B1: OCT2 (Homo sapiens) (protein)
chain: T3 sequence (O15244 1-555)
Take B1: in the series “not read” (other: OCT2, this study), the Michaelis constant (Km) is given as 163 µM and the Vmax worked out at 0.00597 µmol/min/mg.

B2: OCT3 (Homo sapiens) (protein)
chain: T2 sequence (O75751 1-556)
For B2, in “not read” (other: OCT3, this study), the Km is 146 µM and the Vmax is 0.00246 µmol/min/mg.

What is called Km is the substrate concentration at which the rate is half of its maximum. The Vmax is the top rate of the reaction or transport when substrate is in excess.
